According to patent US20110281852A1 (priority 2010, published 2011):

Columns and labels:
[1] = system: C/EBPα; experiment: Immunoblot, C/EBPα protein in HWP; format: cell-based, human; conditions: day 15
Method: (§1) Immunoblot Analysis: Protein expression of GATA-2, GATA-3, PPARγ and C/EBPα were assessed by Western Blot. Total proteins were isolated from HWP treated with compounds or vehicles on day 15. The cells were washed twice with PBS, lysed in a lysis buffer containing HEPES-Tx-PI buffer: […] HEPES, 5 mM EDTA, 350 mM Sucrose, 1 μg/ml leupeptin, 1 μg/ml pepstatin, 1% Triton-X, 1 mM PMSF), processed with a 25G needle and centrifuged at 10,000 rpm for 5 min. Protein concentration was determined using the Micro BCA Protein Assay Kit (Fisher Scientific, Pittsburgh, Pa., USA) according to the manufacturers instructions. 20 μg proteins were loaded and separated by electrophoresis using the BioRad Electrophoretic System (60 V for 1 hour followed by 90 V for 5 hours). The proteins were then transferred to nitrocellulose membranes at 35 V overnight. The membrane was blocked for 1 hour at room temperature in 5% nonfat milk in Tris-buffered saline (TBS), then washed with Tween-20-TBS (TTBS, 0.1% Tween-20) three times (15 min, 5 min, 5 min), followed by incubation with primary antibodies human GATA-2, GATA-3, PPARγ, C/EBPα and β-actin (dilution 1:200) (all antibodies were purchased from Santa Cruz Biotechnology, Santa Cruz, Calif., USA) at room temperature for 2 hours. […]

[2] = system: GATA-2; experiment: Real-Time RT-PCR, GATA-2 mRNA in HWP; format: cell-based, human; conditions: day 15
Excerpt: (§2) Quantitative Real-Time RT-PCR: Real-Time reverse transcriptase polymerase chain reaction (RT-PCR) analysis was used to measure mRNA expression of human genes PPARγ, C/EBPα, GATA-2 and GATA-3 under the control of β-actin. Briefly, total RNA was isolated from HWP following treatment at days 15 with Trizol reagent (Invitrogen, Carlsbad, Calif., USA) according to the manufacturer's instruction. RNA was quantified using absorption of light at 260 and 280 nm, and sample integrity was checked by 1.5% agarose gel electrophoresis. 0.8 μg of total RNA from each sample was used for reverse transcription reaction using the TaqMan Reverse Transcription Reagents (Applied Biosystems, Foster City, Calif., USA) following the Manufacturer's instructions. PCR was done using the SYBR green Master Mix (Applied Biosystems, Foster City, Calif., USA) following the manufacturer's instructions. The temperature cycling conditions of amplification were as follows: an initial step of denaturation at 95° C. for 10 min, 40 cycles of denaturation at 95° C. for 30 s, annealing at 55° C. for 30 s, and elongation at 72° C. for 30 s. Real-Time RT-PCR was performed using Mx3000P Real-Time Thermocyclers (Statagene, La Jolla, Calif., USA). The relative mRNA levels of these genes were calculated by Pfaffl's mathematical method (Pfaffl, M W, Nucleic Acid Res (2001) 29:e45) and normalized with control-treated groups.

[3] = system: GATA-3; experiment: Real-Time RT-PCR, GATA-3 mRNA in HWP; format: cell-based, human; conditions: day 15
Excerpt: as §2

[4] = system: GATA-3; experiment: Immunoblot, GATA-3 protein in HWP; format: cell-based, human; conditions: day 15
Method: Immunoblot Analysis: Protein expression of GATA-2, GATA-3, PPARγ and C/EBPα were assessed by Western Blot. Total proteins were isolated from HWP treated with compounds or vehicles on day 15. The cells were washed twice with PBS, lysed in a lysis buffer containing HEPES-Tx-PI buffer: […] HEPES, 5 mM EDTA, 350 mM Sucrose, 1 μg/ml leupeptin, 1 μg/ml pepstatin, 1% Triton-X, 1 mM PMSF), processed with a 25G needle and centrifuged at 10,000 rpm for 5 min. Protein concentration was determined using the Micro BCA Protein Assay Kit (Fisher Scientific, Pittsburgh, Pa., USA) according to the manufacturers instructions. 20 μg proteins were loaded and separated by electrophoresis using the BioRad Electrophoretic System (60 V for 1 hour followed by 90 V for 5 hours). The proteins were then transferred to nitrocellulose membranes at 35 V overnight. The membrane was blocked for 1 hour at room temperature in 5% nonfat milk in Tris-buffered saline (TBS), then washed with Tween-20-TBS (TTBS, 0.1% Tween-20) three times (15 min, 5 min, 5 min), followed by incubation with primary antibodies human GATA-2, GATA-3, PPARγ, C/EBPα and β-actin (dilution 1:200) (all antibodies were purchased from Santa Cruz Biotechnology, Santa Cruz, Calif., USA) at room temperature for 2 hours. The membrane was rinsed three times (15 min, 5 min, 5 min), then incubated at room temperature for 1 hour with Horseradish peroxidase-conjugated second antibody (1:10,000). The membrane was then incubated in ECL reagent (GE Healthcare, Piscataway, N.J., USA) for 1 minute. Protein was visualized using the UVP image analysis system (UVP, Upland, Calif., USA).

[5] = system: PPARγ; experiment: Immunoblot, PPARγ protein in HWP; format: cell-based, human; conditions: day 15
Method: as §1

[6] = system: human white preadipocytes (HWP); experiment: MTT assay, viability of HWP during differentiation; format: cell-based; conditions: 15 days of differentiation
Method: Cell culture: Cell culture was carried out following the protocol provided by Promocell Company. Briefly, human white preadipocytes (HWP's […]) were cultured at 37° C. in a humidified 5% CO2 atmosphere and grown in a preadipocyte Growth medium (GM) with 100 units/ml penicillin and 100 μg/ml streptomycin until confluence (day 0). Differentiation was induced with preadipocyte Differentiation Medium (DM) for 3 days (days 3), where upon the medium was changed to adipocyte Nutrition Medium (NM) and cultured for 12 days (days 15) (HWP cell line and media were purchased from Promocell, Heidelberg, Germany).

[7] = system: PPARγ; experiment: Real-Time RT-PCR, PPARγ mRNA in HWP; format: cell-based, human; conditions: day 15
Excerpt: as §2

[8] = system: C/EBPα; experiment: Real-Time RT-PCR, C/EBPα mRNA in HWP; format: cell-based, human; conditions: day 15
Excerpt: as §2

[9] = system: human white preadipocytes (HWP); experiment: Oil-Red-O staining and quantification, HWP differentiation; format: cell-based; conditions: 15 days post differentiation induction
Method: Cell culture: Cell culture was carried out following the protocol provided by Promocell Company. […] Differentiation was induced with preadipocyte Differentiation Medium (DM) for 3 days (days 3), where upon the medium was changed to adipocyte Nutrition Medium (NM) and cultured for 12 days (days 15) (HWP cell line and media were purchased from Promocell, Heidelberg, Germany).
Oil-Red-O Staining and quantification: Oil-Red-O Staining and quantitative Oil-Red-O Staining were performed as previously reported. Briefly, medium was removed and cells were washed with PBS twice, fixed with 3.7% formalin at room temperature for 30 min, then rinsed with water, added 60% 2-propanol and incubated for 5 minutes, then moved out 2-propanol and stained cells with Oil-Red-O solution (Oil-Red-O store solution (3 mg/ml in pure 2-propanol): water=3:2) at room temperature for 10 min. Then the Oil-Red-O solution was removed and cells were washed 3 times with water. Images were obtained using an Olympus IX70 inverted microscope equipped for phase-contrast microscopy (Olympus, Tokyo, Japan). After staining, the cells were washed twice with 70% ethanol to remove excess stain. Stained oil droplets in the cells were dissolved in 2-propanol containing 4% Nonidet-P40 (Fisher Scientific, Pittsburgh, Pa., USA) and OD values were measured at an absorbance of 490 nm.

COc1ccc2cc3[n+](cc2c1OC)CCc1cc2c(cc1-3)OCO2.[Cl-] [berberine, Berberine (Chloride Form)]
C/EBPα protein expression, drug-treated vs control cells [1]: no significant difference | GATA-2 mRNA expression vs vehicle (control) group ([2]; 1 μM): 3.87 fold | GATA-2 mRNA expression vs vehicle (control) group ([2]; 2 μM): 4.1 fold | GATA-2 mRNA expression vs vehicle (control) group ([2]; 4 μM): 3.8 fold | GATA-2 mRNA expression vs vehicle (control) group ([2]; 8 μM): 5.33 fold | GATA-3 mRNA expression vs control group ([3]; 1 μM): 2.77 fold | GATA-3 mRNA expression vs control group ([3]; 2 μM): 2.79 fold | GATA-3 mRNA expression vs control group ([3]; 4 μM): 4.43 fold | GATA-3 mRNA expression vs control group ([3]; 8 μM): 6.77 fold | GATA-3 protein expression vs controls ([4]; 1 μM): 5.63 fold | GATA-3 protein expression vs controls ([4]; 2 μM): 5.65 fold | GATA-3 protein expression vs controls ([4]; 4 μM): 6.43 fold | GATA-3 protein expression vs controls ([4]; 8 μM): 5.37 fold | PPARγ protein expression, drug-treated vs control cells [5]: no significant difference | decrease of cell viability vs control ([6]; 1 μM): −3.1% | decrease of cell viability vs control ([6]; 2 μM): 1.1% | decrease of cell viability vs control ([6]; 4 μM): −0.0% | decrease of cell viability vs control ([6]; 8 μM): 1.3% | change in PPARγ mRNA expression [7]: no significant changes | change in C/EBPα mRNA expression [8]: no significant changes | reduction in lipid content ([9]; 1 μM): 31.9% | reduction in lipid content ([9]; 2 μM): 42.9% | reduction in lipid content ([9]; 4 μM): 60.6% | reduction in lipid content ([9]; 8 μM): 66.4%

evodiamine
C/EBPα protein expression, drug-treated vs control cells [1]: no significant difference | GATA-2 mRNA expression vs vehicle (control) group ([2]; 1 μM): 1.36 fold | GATA-2 mRNA expression vs vehicle (control) group ([2]; 2 μM): 1.5 fold | GATA-2 mRNA expression vs vehicle (control) group ([2]; 4 μM): 2.08 fold | GATA-3 mRNA expression vs control group ([3]; 1 μM): 2.61 fold | GATA-3 mRNA expression vs control group ([3]; 2 μM): 2.7 fold | GATA-3 mRNA expression vs control group ([3]; 4 μM): 2.79 fold | GATA-3 protein expression vs controls ([4]; 1 μM): 4.21 fold | GATA-3 protein expression vs controls ([4]; 2 μM): 4.95 fold | GATA-3 protein expression vs controls ([4]; 4 μM): 6.57 fold | PPARγ protein expression, drug-treated vs control cells [5]: no significant difference | decrease of cell viability vs control ([6]; 0.25 μM): 14.1% | decrease of cell viability vs control ([6]; 0.5 μM): 15% | decrease of cell viability vs control ([6]; 1 μM): 17.7% | decrease of cell viability vs control ([6]; 2 μM): 30.5% | decrease of cell viability vs control ([6]; 4 μM): 34.2% | decrease of cell viability vs control ([6]; 8 μM): 53.6% | change in PPARγ mRNA expression [7]: no significant changes | change in C/EBPα mRNA expression [8]: no significant changes | reduction in lipid content ([9]; 0.125 μM): 7.5% | reduction in lipid content ([9]; 0.25 μM): 13.8% | reduction in lipid content ([9]; 0.5 μM): 19% | reduction in lipid content ([9]; 1 μM): 27.8% | reduction in lipid content ([9]; 2 μM): 46.7% | reduction in lipid content ([9]; 4 μM): 84.6% | reduction in lipid content ([9]; 8 μM): 112.6%
